The source of these data is ChEMBL document CHEMBL3621096, “Discovery of Potent and Selective Inhibitors for ADAMTS-4 through DNA-Encoded Library Technology (ELT)” (ACS Med Chem Lett, 2015).

Experiment [1] addresses T1, A disintegrin and metalloproteinase with thrombospondin motifs 4 (Homo sapiens, UniProt O75173).
T1 sequence (O75173 whole entry): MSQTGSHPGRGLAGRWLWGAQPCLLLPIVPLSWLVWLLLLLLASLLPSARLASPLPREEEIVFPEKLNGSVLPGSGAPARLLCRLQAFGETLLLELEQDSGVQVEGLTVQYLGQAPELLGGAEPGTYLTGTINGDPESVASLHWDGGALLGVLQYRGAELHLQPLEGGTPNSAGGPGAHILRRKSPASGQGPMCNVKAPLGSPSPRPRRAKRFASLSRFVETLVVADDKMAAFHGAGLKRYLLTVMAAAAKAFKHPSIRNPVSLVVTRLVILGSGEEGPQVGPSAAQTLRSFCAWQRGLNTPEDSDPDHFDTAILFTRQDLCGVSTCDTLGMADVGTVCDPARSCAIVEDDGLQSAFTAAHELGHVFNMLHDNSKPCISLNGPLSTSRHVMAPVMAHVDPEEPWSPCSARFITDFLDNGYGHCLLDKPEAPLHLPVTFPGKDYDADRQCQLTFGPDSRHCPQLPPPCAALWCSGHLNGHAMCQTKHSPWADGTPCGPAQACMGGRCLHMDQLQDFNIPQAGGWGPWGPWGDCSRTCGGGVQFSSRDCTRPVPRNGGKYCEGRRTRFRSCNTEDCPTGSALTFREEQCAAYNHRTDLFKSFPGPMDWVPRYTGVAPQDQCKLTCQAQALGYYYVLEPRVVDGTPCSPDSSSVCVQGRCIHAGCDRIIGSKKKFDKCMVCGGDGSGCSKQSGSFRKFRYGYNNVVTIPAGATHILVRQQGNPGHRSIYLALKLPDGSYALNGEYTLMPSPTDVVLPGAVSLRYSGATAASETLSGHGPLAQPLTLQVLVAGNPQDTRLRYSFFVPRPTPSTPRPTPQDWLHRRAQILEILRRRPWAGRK
Nature of the experiment: Inhibition of recombinant human ADAMTS4 (213 to 575 amino acid residues) using WAAG-3R as substrate preincubated for 15 mins followed by substrate addition measured every 30 secs for 1 hr.

Experiment [2] concerns the target T2, A disintegrin and metalloproteinase with thrombospondin motifs 5 (Homo sapiens, UniProt Q9UNA0).
T2 sequence (Q9UNA0 whole entry): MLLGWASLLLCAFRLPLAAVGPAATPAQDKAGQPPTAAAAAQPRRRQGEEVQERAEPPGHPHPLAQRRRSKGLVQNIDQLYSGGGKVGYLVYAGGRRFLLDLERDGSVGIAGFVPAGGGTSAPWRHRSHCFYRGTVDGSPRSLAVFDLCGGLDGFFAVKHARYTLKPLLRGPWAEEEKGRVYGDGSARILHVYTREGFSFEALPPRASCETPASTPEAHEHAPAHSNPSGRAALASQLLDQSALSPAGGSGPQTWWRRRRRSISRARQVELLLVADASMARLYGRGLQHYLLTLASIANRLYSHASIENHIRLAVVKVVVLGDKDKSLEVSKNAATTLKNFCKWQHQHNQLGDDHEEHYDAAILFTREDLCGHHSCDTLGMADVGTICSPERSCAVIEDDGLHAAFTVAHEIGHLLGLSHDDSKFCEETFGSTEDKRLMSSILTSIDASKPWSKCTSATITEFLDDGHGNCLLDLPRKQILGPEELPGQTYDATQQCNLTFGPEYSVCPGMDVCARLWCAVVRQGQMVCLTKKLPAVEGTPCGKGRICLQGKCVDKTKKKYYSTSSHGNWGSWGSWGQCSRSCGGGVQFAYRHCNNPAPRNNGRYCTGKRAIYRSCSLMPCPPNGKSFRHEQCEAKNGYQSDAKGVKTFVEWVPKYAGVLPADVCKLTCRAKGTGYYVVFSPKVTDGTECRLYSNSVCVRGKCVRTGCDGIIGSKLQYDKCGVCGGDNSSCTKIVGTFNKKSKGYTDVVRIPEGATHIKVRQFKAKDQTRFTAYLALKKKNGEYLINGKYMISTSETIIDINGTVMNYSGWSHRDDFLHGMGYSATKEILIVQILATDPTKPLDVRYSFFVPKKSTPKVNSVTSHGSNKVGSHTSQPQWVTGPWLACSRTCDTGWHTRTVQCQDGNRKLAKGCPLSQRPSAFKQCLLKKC
Nature of the experiment: Inhibition of ADAMTS5 (unknown origin) using WAAG-3R as substrate preincubated for 15 mins followed by substrate addition measured every 30 secs for 1 hr.

In the next experiment the target is Collagenase 3 (Homo sapiens, UniProt P45452). The experiment can be described thus: Inhibition of human recombinant MMP13 using 5-FAMTPGPLGL[Dap(DNP)]ARRK(5-TAMRA)-amide as substrate after 45 mins.
Experiment [3] deals with T3, A disintegrin and metalloproteinase with thrombospondin motifs 13 (Homo sapiens, UniProt Q76LX8).
T3 sequence (Q76LX8 whole entry): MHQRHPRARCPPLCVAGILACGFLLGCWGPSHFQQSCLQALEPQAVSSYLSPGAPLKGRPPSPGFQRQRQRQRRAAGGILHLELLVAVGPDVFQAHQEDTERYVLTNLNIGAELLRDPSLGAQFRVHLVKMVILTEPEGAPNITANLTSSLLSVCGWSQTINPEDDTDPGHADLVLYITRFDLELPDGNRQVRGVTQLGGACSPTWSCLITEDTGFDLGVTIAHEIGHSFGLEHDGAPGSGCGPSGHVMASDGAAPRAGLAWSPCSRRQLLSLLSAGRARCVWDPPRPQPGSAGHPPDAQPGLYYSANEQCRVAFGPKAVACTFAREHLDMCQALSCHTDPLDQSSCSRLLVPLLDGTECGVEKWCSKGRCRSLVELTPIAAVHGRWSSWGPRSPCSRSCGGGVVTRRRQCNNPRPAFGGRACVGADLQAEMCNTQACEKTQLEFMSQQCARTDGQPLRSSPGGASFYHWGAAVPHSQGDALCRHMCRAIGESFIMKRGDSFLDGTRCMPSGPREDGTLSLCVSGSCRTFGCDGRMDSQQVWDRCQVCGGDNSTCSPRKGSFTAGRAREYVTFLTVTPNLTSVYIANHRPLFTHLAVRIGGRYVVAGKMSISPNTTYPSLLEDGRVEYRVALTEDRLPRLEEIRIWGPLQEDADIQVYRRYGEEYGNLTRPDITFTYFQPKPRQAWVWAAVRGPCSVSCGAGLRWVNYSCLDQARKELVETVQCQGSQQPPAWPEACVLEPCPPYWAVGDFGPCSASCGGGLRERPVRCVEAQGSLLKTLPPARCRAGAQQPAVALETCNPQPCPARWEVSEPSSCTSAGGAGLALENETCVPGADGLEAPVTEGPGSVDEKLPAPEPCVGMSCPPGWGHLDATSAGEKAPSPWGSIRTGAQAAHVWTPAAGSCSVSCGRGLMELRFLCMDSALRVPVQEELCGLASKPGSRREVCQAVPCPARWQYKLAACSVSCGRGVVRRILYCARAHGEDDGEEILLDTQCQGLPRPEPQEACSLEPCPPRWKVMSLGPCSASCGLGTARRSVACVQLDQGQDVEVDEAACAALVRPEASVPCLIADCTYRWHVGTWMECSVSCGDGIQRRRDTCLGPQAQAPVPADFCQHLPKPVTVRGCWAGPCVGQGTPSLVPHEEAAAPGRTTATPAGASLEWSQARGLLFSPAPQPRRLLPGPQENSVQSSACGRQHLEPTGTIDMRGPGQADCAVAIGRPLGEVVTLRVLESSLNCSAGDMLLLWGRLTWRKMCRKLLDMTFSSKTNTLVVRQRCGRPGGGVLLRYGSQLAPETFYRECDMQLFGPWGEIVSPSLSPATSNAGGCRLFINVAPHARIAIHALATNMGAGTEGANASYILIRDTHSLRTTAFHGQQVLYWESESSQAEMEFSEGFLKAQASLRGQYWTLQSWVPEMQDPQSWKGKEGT
Nature of the experiment: Inhibition of human recombinant ADAMTS13 using FRETSVWF73 as substrate by fluorescence assay.

For experiment [4], the target named is Disintegrin and metalloproteinase domain-containing protein 17 (Homo sapiens, UniProt P78536). Nature of the experiment: Inhibition of human recombinant TACE using Mca-PLAQAV-Dpa-RSSSR-NH2 as substrate preincubated for 15 mins measured every 30 secs for 30 mins by fluorescence assay.
Chain of Disintegrin and metalloproteinase domain-containing protein 17 (P78536 whole entry, the tested form may be a part): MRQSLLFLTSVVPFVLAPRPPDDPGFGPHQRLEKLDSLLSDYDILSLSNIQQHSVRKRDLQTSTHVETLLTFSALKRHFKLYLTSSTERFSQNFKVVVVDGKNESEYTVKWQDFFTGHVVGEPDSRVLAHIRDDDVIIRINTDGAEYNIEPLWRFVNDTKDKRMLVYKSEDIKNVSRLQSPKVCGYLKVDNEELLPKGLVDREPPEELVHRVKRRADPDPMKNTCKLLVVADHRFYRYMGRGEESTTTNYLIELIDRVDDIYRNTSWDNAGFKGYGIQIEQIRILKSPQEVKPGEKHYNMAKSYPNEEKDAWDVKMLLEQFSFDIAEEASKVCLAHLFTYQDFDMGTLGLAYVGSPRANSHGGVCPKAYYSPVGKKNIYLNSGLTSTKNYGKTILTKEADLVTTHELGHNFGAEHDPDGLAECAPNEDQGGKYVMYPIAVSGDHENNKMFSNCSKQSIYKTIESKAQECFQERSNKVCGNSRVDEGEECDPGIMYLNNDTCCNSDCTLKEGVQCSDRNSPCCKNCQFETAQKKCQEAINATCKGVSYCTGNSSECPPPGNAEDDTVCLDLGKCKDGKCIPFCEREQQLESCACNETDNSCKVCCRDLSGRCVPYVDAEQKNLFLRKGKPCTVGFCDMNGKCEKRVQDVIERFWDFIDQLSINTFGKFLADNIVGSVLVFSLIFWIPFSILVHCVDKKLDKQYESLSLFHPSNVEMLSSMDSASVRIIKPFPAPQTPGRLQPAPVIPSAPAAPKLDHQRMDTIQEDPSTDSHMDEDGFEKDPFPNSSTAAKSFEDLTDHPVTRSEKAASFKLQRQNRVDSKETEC
Experiment [5] deals with T4, A disintegrin and metalloproteinase with thrombospondin motifs 5 (Homo sapiens) (UniProt Q9UNA0).
T4 sequence (whole entry): T2 sequence (Q9UNA0 whole entry)
Nature of the experiment: Inhibition of ADAMTS5 (unknown origin) using WAAG-3R as substrate at 10 uM preincubated for 15 mins followed by substrate addition measured every 30 secs for 1 hr relative to control.

`CCN(C(=O)c1ccc(CNc2nc(NCCN3CCN(C)CC3)nc(N3CCc4cc(OC)c(OC)cc4C3)n2)cc1)c1cccc(C)c1`: the IC50 is 0.01 µM in experiment [1]; more than 10 µM in experiment [2]; more than 10 µM at Collagenase 3; more than 10 µM in experiment [3]; more than 10 µM in experiment [4]. This molecule also yielded an inhibition in experiment [5] of 30%.

As a reminder, the IC50 is the concentration that gives 50% inhibition. The term inhibition denotes the share of the control response that was lost under treatment. Low readings indicate little suppression, high ones strong suppression.
